Source: patent US12370166B2, “Pentadecanoylcarnitine for treatment of conditions related to the quality of aging and longevity” (EPITRACKER, INC., priority 2021, dated 2025)

Experiments:
[1] = system: in vivo model of nonalcoholic fatty liver disease; conditions: daily supplementation over 11 weeks; cited from earlier work
[2] = system: peroxisome proliferator-activated receptor (PPAR) α/δ; conditions: cited from earlier work
[3] = system: diet-induced obese mice modeling type 2 diabetes; conditions: daily oral, approximately 12 weeks; cited from earlier work
[4] = system: AMP-activated protein kinase (AMPK); conditions: cited from earlier work
mitochondrial function = conditions: cited from earlier work
red blood cell membranes = conditions: cited from earlier work
[5] = target: T1, Cholinergic receptor muscarinic 1 (Homo sapiens, UniProt P11229); assay: Receptor-based pharmacological activity, antagonist; assay type: biochemical; conditions: for IC50: read-out: RC50 (IC50)
T1 sequence (P11229 1-460): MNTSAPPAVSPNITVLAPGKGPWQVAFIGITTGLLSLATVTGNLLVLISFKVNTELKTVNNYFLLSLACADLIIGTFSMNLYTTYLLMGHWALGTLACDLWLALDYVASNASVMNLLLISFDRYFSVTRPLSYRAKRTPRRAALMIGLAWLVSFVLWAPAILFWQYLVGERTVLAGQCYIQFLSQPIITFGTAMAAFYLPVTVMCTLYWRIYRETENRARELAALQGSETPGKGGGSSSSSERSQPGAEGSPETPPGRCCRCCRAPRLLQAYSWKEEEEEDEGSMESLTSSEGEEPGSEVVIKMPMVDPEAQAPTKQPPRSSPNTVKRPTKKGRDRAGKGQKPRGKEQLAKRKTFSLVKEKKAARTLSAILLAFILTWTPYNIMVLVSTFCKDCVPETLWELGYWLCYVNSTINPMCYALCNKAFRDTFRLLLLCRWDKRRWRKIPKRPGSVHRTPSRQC
Protocol: Methods for this study have been previously described (Venn-Watson, S., Lumpkin, R., Dennis, E. A. Efficacy of dietary odd-chain saturated fatty acid pentadecanoic acid parallels broad associated health benefits in humans: could it be essential? Sci Rep 10:8161 (2020)). Significant activities of pentadecanoylcarnitine were those tagged as having maximum pharmacological activities that were greater than or equal to 70% that of the internal control between the concentrations of 1 to 20 μM. Significant pharmacological activities caused by pentadecanoylcarnitine were compared with results from the same assays using pentadecanoic acid (C15:0).

breast cancer cells = conditions: cited from earlier work
BT cell system = assay: Human primary cell phenotypic profiling, BT cell system (asthma, oncology, autoimmunity, allergy); assay type: cell-based; conditions: 6.7 μM stated for pentadecanoylcarnitine
Protocol: (§1) Methods for this human primary cell phenotypic profiling study were those previously described (Venn-Watson, S., Lumpkin, R., Dennis, E. A. Efficacy of dietary odd-chain saturated fatty acid pentadecanoic acid parallels broad associated health benefits in humans: could it be essential? Sci Rep 10:8161 (2020)). Significant activities of pentadecanoylcarnitine were those that were equal to or greater than 0.1|log 10| at 6.7 μM. Biomarkers with significant changes caused by pentadecanoylcarnitine were compared with results from the same study using pentadecanoic acid (C15:0).

[6] = system: human cell systems mimicking various disease states; conditions: cited from earlier work
/IMphg cell system = assay: Human primary cell phenotypic profiling, /IMphg cell system (chronic inflammation, restenosis, cardiovascular disease); assay type: cell-based; conditions: 6.7 μM stated for pentadecanoylcarnitine
Protocol: as §1

KF3CT cell system = assay: Human primary cell phenotypic profiling, KF3CT cell system (dermatitis, psoriasis); assay type: cell-based; conditions: 6.7 μM stated for pentadecanoylcarnitine
Protocol: as §1

4H cell system = assay: Human primary cell phenotypic profiling, 4H cell system (autoimmunity, allergy, asthma); assay type: cell-based; conditions: 6.7 μM stated for pentadecanoylcarnitine, NS = not significant
Protocol: as §1

BE3C cell system = assay: Human primary cell phenotypic profiling, BE3C cell system (COPD, lung inflammation); assay type: cell-based; conditions: 6.7 μM stated for pentadecanoylcarnitine
Protocol: as §1

SAg cell system = assay: Human primary cell phenotypic profiling, SAg cell system (chronic inflammation, autoimmune disease); assay type: cell-based; conditions: 6.7 μM stated for pentadecanoylcarnitine
Protocol: as §1

HDF3CGF cell system = assay: Human primary cell phenotypic profiling, HDF3CGF cell system (fibrosis, chronic inflammation); assay type: cell-based; conditions: 6.7 μM stated for pentadecanoylcarnitine
Protocol: as §1

LPS cell system = assay: Human primary cell phenotypic profiling, LPS cell system (chronic inflammation, cardiovascular disease); assay type: cell-based; conditions: 6.7 μM stated for pentadecanoylcarnitine
Protocol: as §1

MyoF cell system = assay: Human primary cell phenotypic profiling, MyoF cell system (wound healing, matrix remodeling, fibrosis); assay type: cell-based; conditions: 6.7 μM stated for pentadecanoylcarnitine
Protocol: as §1

CASM3C cell system = assay: Human primary cell phenotypic profiling, CASM3C cell system (cardiovascular inflammation, restenosis); assay type: cell-based; conditions: 6.7 μM stated for pentadecanoylcarnitine
Protocol: as §1

[7] = Antagonist, positive control Atropine

For `CCCCCCCCCCCCCCC(=O)O` [Pentadecanoic acid (C15:0), Pentadecanoic acid], the Anemia [1] is listed as “attenuated”, the Cholesterol [1] is listed as “lowered” and the Inflammation [1] is listed as “lowered”. The Liver fibrosis [1] was “attenuated”, the Triglycerides [1] was “lowered” and the “PPAR α/δ agonist activity” value [2] was “dual, partial”. The “Body weight gain compared to non-supplemented controls” value [3] was “lower”, the “Cholesterol compared to non-supplemented controls” value [3] was “lower” and the “Glucose compared to non-supplemented controls” value [3] was “lower”. For the same compound, the “Pro-inflammatory cytokines compared to non-supplemented controls” value [3] was “lower”, the AMPK activity [4] was “activator” and the “Effect on mitochondrial function” value (mitochondrial function) was “repair”. For the same compound, the “Effect on stability of red blood cell membranes” value (red blood cell membranes) was “improve”, the Emax ([5]; Antagonist, positive control Atropine, 1 to 20 μM, read-out: Max Response (%) Compared to Positive Control) was 0% and the IC50 [5, 7] was > 20 µM. For the same compound, the “Effect on proliferation of breast cancer cells” value (breast cancer cells) was “decrease”, the sIL-6 biomarker change (BT cell system) was “+0.12 log 10” and the sTNF-α biomarker change (BT cell system) was “+0.14 log 10”. The “Properties in human cell systems mimicking various disease states” value [6] was “anti-inflammatory and antifibrotic properties”.

Compound `CCCCCCCCCCCCCCC(=O)O[C@H](CC(=O)[O-])C[N+](C)(C)C` [Pentadecanoylcarnitine, pentadecanoylcarnitine] has an MCP-1 biomarker change (/IMphg cell system) of −0.25 log 10, a sIL-10 biomarker change (/IMphg cell system) of −0.13 log 10 and a CXCL10/IP-10 biomarker change (KF3CT cell system) of −0.10 log 10. The VEGFR2 biomarker change (4H cell system) was −0.11 log 10, the CXCL8/IL-8 biomarker change (BE3C cell system) was −0.21 log 10 and the CXCL9/MIG biomarker change (BE3C cell system) was −0.60 log 10. The CXCL10/IP-10 biomarker change (BE3C cell system) was −0.10 log 10, the CXCL11/I-TAC biomarker change (BE3C cell system) was −0.54 log 10 and the HLA-DR biomarker change (BE3C cell system) was −0.63 log 10. It also gave an IL-1a biomarker change (BE3C cell system) of −0.19 log 10, an MMP-1 biomarker change (BE3C cell system) of −0.27 log 10 and an MMP-9 biomarker change (BE3C cell system) of −0.34 log 10. For the same compound, the PAI-1 biomarker change (BE3C cell system) was −0.24 log 10, the tPA biomarker change (BE3C cell system) was −0.43 log 10 and the uPA biomarker change (BE3C cell system) was −0.28 log 10. For the same compound, the uPAR biomarker change (BE3C cell system) was −0.12 log 10, the “B-Cell Proliferation change” value (SAg cell system) was −0.17 log 10 and the E-Selectin biomarker change (SAg cell system) was −0.11 log 10. For the same compound, the MMP-1 biomarker change (HDF3CGF cell system) was −0.12 log 10, the “Tissue Factor biomarker change” value (LPS cell system) was “+0.11 log 10” and the “Max Response (%) Compared to Positive Control” value ([5]; Antagonist, positive control Atropine, 1 to 20 μM) was 77%. The IC50 [5, 7] was 10.5 µM, the “Pharmacological activity at cholinergic receptor muscarinic 1” value ([5]; at approximately 1 to 20 μM) was “antagonist” and the “α-SM Actin biomarker change” value (MyoF cell system) was −0.26 log 10. The Proliferation change (CASM3C cell system) was “+0.10 log 10”, the sIL-6 biomarker change (BT cell system) was −0.13 log 10 and the sTNF-α biomarker change (BT cell system) was −0.10 log 10.
